Laboratory results taken from patent US20260092085A1, “SYNTHETIC TRIPLEX PEPTIDE NUCLEIC ACID-BASED INHIBITORS FOR CANCER THERAPY” (University of Connecticut, priority 2022, published 2026).

Tested on: miR-155 downstream genes
Assay: Downstream gene expression and protein levels in U2932 tumor samples
Assay type: in vivo, NSG mice
Settings: U2932 xenograft
Procedure: FIGS. 22A-D show in vivo gene expression and protein level analysis. (22A) miR-155 gene expression levels in U2932 tumor samples after in vivo treatment with indicated PNAs. Data was normalized with average control U6 (n=4, data represented as mean±standard error mean). ***p<0.001 (22B) Gene expression level of downstream target genes of miR-155: MCL1 in U2932 tumor samples after treatment with total 3 mg kg-1 dose of Scr-γtcPNA-155, PNA-155, γPNA-155 and γtcPNA-155 and normalized with average control GAPDH (n=3, data represented as mean±SEM), unpaired two-tailed t-test was performed for analysis). *p<0.05, **p<0.01 (22C) Representative western blot of Mcl-1 protein and its quantification (n=3 technical replicate) in U2932 tumor samples treated with total 3 mg kg-1 dose of Scr-γtcPNA-155, PNA-155 and γtcPNA-155. Data is represented as mean±SEM and unpaired two-tailed t-test was performed for analysis. *p<0.05. The relative protein levels were determined from the band intensity using ImageJ software and normalized relative to loading control and treatment control. (22D) Gene expression level of tumor suppressor proteins (FOXO3A, CUX1, SOCS1, CSF1R, JARID2, SHIP1, PICALM, PDCD4, BACH1, CASP3) in U2932 tumor samples after treatment with total 3 mg kg-1 dose of Scr-γtcPNA-155, PNA-155, γPNA-155 and γtcPNA-155 and normalized with average control GAPDH (n=3, data represented as mean±SEM, unpaired two-tailed t-test was performed for statistical analysis). *p<0.05, **p<0.01.
Data is represented as mean±SEM and unpaired t-test was used for statistical analysis *p<0.05. The relative protein levels were determined from the band intensity using ImageJ software and normalized relative to loading control and treatment control.
Data is represented as mean±SEM and unpaired t-test was used for statistical analysis.
Data is represented as mean±SEM and unpaired t-test was used for statistical analysis. The relative protein levels were determined from the band intensity using ImageJ software and normalized relative to loading control and treatment control.
RNA and Protein extraction from tumor samples: The mice were injected intra-tumorally with 1 mg kg-1 dose of PNA-155, γtcPNA-155, γPNA-155, Scr-γtcPNA-155 or were untreated. The injections were repeated two additional times after 1 week each. The length, breadth, and depth of the tumors were measured daily using a vernier caliper. The mice were euthanized when the tumor volumes reached 2000 mm^3. The resected tumor sections were finely minced using a sterile blade and suspended in dissociation media (4 ml) comprising of RPMI-1640, 1.2 mg/ml dispase, and 0.5 mg/ml collagenase for 90 mins at 500 rpm at 37° C. The dissociated tumors were washed with buffer saline at 2500 rpm (4 mins) at 4° C. and then suspended in 0.25% trypsin for 4 mins at room temperature. RPMI 1640 media was added to the trypsinized tumor mass, and the cells were passed through a 70 um filter. The cells were centrifuged at 2500 rpm for 4 mins at 4° C. The cell pellet was then suspended in 1×RBC lysis buffer (Sigma) and incubated on ice for 10 mins. PBS was added to the cells and the cells were passed through a 40 um filter. The cells were centrifuged at 2500 rpm for 4 mins at 4° C. The cell pellet was resuspended in 0.5% BSA in PBS. The mouse cells were removed from the tumor cells using a mouse cell depletion kit (Miltenyi Biotec) according to the manufacturer's protocol. The enriched tumor cells from each tumor sample were divided into two fractions. RNA for gene expression analysis was extracted from one tumor fraction by the same procedure as mentioned earlier. The protein for western blot analysis was extracted from the second fraction using the method described above.

Q: What does the source list for “γtcPNA-155: serine gamma tail-clamp anti-miR-155 PNA, RR-TJJJJ-OOO-ACCCCTATCACGATTAGCATTAA-RR, SEQ ID NO: 3 (all peptide nucleic acid (PNA); serine gamma PNA, tail-clamp TJJJJ via linkers, Arg-Arg at both ends)”?
A: upregulation of tumor suppressor genes in tumors (intratumoral): significant upregulation; decrease in MCL1 mRNA levels in tumors (total 3 mg kg-1, compared to PNA-155 treated group): ~50%; increase in Caspase-3 protein levels in tumors (versus Scr-γtcPNA-155-treated tumors): 23%; Mcl-1 protein level in tumors (western blot): reduction in the protein levels
